Non-standard residues stand in square brackets, D forms with d. No end group written: not given here. *: point of attachment. Acetyl(2-(piperazin-1-yl)) = O=C(CN1CCNCC1)*; PEG20k = methoxypolyethylene glycol 20k; NMeA = CN[C@@H](C)C(=O)O; βAla = NCCC(=O)O
Columns and labels:
human TGR1 = target: T1, human TGR1 (Homo sapiens, UniProt Q9GZQ4); experiment: Receptor binding test: inhibition of 125I-NMU8 binding to TGR1 membrane fraction; conditions: ratio of IC50 values when the affinity of NMU-8 was 1; 125I-NMU8 135 pM, CHO cell membrane fraction
T1 construct: expressed in transfected cells; host or cells: CHO (dhfr-) cells; membrane fraction
T1 sequence (Q9GZQ4 whole entry): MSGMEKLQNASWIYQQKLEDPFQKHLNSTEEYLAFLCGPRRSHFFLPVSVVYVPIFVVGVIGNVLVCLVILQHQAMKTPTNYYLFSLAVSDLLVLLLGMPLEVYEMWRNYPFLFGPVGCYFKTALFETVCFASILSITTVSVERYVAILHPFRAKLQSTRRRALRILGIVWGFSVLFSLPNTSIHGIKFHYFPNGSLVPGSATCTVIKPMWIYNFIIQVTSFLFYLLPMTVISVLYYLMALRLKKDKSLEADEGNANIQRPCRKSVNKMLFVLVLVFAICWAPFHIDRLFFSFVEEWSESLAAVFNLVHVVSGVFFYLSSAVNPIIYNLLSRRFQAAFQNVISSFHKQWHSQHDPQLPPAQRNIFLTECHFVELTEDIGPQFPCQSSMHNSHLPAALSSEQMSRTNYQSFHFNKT
Experimental: CHO cells expressing Human FM3 (dhfr-) and CHO cells expressing human TGR1 (dhfr-) were cultured in 10% dialyzed FBS-containing MEMα (Invitrogen) medium under conditions of 5% carbon dioxide at 37° C. The adherent cells were detached with 10 mL of 0.1 mM EDTA-containing D-PBS (Invitrogen) and centrifuged for 10 minutes at 1,000 rpm at 4° C., thereby collecting the cells. 15 mL of homogenized buffer (10 mM NaHCO3 (pH 7.4), 5 mM EDTA, protease inhibitor=0.5 mM PMSF, 10 μg/mL Pepstatin A, 20 μg/mL Leupeptin, and 4 μg/mL E-64) was added to the obtained cell pellets, the cellular membrane was disrupted using a polytron homogenizer (Kinematica GmbH), centrifugation was conducted for 10 minutes at 1,000 g at 4° C., and the supernatant was collected. This process was further repeated twice, and ultracentrifugation was conducted for 60 minutes at 30,000 rpm at 4° C. Thereafter, 8 mL of homogenized buffer was added to the pellets and suspended homogeneously to prepare a membrane fraction. The protein concentration of the FM3-expressing CHO cellular membrane fraction was 1.2 mg/mL, and the protein concentration of the TGR1-expressing CHO cellular membrane fraction was 1.1 mg/mL.
The affinity of the NMU-8 derivatives and PEG conjugates shown in Table 2 (Table 2-1 and Table 2-2) with respect to each receptor was evaluated based on the inhibition of ^125I-NMU8 labeled ligand binding to the FM3 membrane fraction or to the TGR1 membrane fraction. Specifically, each of the NMU derivatives and PEG conjugates was dissolved in DMSO so as to prepare 2 μL of each dilution series of the NMU derivatives and PEG conjugates. Then, 100 μL of membrane fraction solutions diluted with a reaction buffer (50 mM HEPES, 1 mM EDTA protease inhibitor (0.5 mM PMSF), 10 μg/mL Pepstatin A, 20 μg/mL Leupeptin, and 4 μg/mL E-64, pH 6.8, 0.1% BSA) was added thereto, followed by further addition of 100 μL of the labeled ligand (final concentration: 135 pM) similarly diluted with the reaction buffer. The resulting product was thoroughly mixed, and then a reaction was carried out at 25° C. for 70 minutes. In accordance with the above-described procedure, the binding amount of the labeled ligand remaining in the filter was measured using a top count (PerkinElmer) by a liquid scintillation method, and the IC50 values were calculated using a Graph Pad Prism (FIG. 1 (FM3 receptor binding), FIG. 2 (TGR1 receptor binding), and Table 2).

Human FM3 = target: T2, Human FM3 (Homo sapiens, UniProt Q9HB89); experiment: Receptor binding test: inhibition of 125I-NMU8 binding to FM3 membrane fraction; conditions: ratio of IC50 values when the affinity of NMU-8 was 1; 125I-NMU8 135 pM, CHO cell membrane fraction
T2 construct: expressed in transfected cells; host or cells: CHO (dhfr-) cells; membrane fraction
T2 sequence (Q9HB89 1-426): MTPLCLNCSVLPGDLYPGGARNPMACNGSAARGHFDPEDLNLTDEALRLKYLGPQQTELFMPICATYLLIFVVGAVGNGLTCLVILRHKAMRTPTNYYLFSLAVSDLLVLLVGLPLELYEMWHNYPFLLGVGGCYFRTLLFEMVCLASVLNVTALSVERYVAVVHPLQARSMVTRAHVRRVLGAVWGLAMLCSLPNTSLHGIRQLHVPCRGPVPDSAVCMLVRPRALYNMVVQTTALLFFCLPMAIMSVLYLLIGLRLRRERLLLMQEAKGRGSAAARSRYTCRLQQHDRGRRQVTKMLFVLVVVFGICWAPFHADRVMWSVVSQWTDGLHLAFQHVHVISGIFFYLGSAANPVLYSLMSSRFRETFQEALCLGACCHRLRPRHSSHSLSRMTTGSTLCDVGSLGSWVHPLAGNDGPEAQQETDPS

[1] = Anorectic activity via peripheral administration; assay type: in vivo

| Substance | TGR1 Receptor Binding IC50 ratio (human TGR1) | FM3 Receptor Binding IC50 ratio (Human FM3) | anorectic activity [1] |
| --- | --- | --- | --- |
| PEG30k-NH-β-Ala0,Cha3-NMU-8 [Compound F] | 11 | 1.3 | – |
| β-Ala0,Glu2,NMeAla6-NMU-8 [Compound 18] | 31 | 26000 | – |
| β-Ala0,NMeLeu3,NMeArg7-NMU-8 [Compound 15] | 19 | 8.6 | – |
| PEG30k-NH-β-Ala0,NMeArg5-NMU-8 [Compound M] | 29 | 9.0 | – |
| β-Ala0,NMeArg5-NMU-8 [Compound 13] | 1.1 | 0.46 | – |
| NpipAc0,Nal(2)2,NMeAla6-NMU-8 [Compound 22] | 1.7 | 99 | – |
| β-Ala0,Val3-NMU-8 [Compound 4] | 0.37 | 0.43 | – |
| PEG30k-NH-β-Ala0,Pro1-NMU-8 [Compound H] | 21 | 9.4 | – |
| NMU-23: Rat NMU consists of 23 amino acid residues, and is named NMU-23 (YKVNEYQGPVAPSGGFFLFRPRN; ends and bridges not checked; UniProt P12760 144-166, looked up) | – | – | induces an anorectic activity |
| PEG30k-NH-β-Ala0,Arg3-NMU-8 [Compound C] | 2.6 | 1.7 | – |
| β-Ala0,Arg(Me)7-NMU-8 [Compound 14] | 3.6 | 6.3 | – |
| PEG30k-NH-β-Ala0,Gln5-NMU-8 [Compound A] | 9.6 | 160 | – |
| 2-(piperazin-1-yl)acetyl-Arg3-NMU8 [Compound 10] | 0.66 | 0.27 | – |
| β-Ala0,Gln5-NMU-8 [Compound 1] | 3.4 | 15 | – |
| β-Ala0,Arg1-NMU-8 [Compound 7] | 3.7 | 0.42 | – |
| PEG30k-NH-β-Ala0,Asp8-NMU-8 [Compound L] | 34 | 150 | – |
| PEG20k-NpipAc-Trp2,Ala6-NMU8 ({PEG20k-Acetyl(2-(piperazin-1-yl))}-YWLFRARN-NH2) [Compound T] | – | >10000 | – |
| PEG20k-NH-β-Ala0,Glu2,NMeAla6-NMU-8 ({PEG20k-βAla}-YELFR[NMeA]RN-NH2) [Compound R] | – | >7300 | – |
| NpipAc0,Trp2,Ala6-NMU-8 [Compound 20] | 1.9 | 900 | – |
| PEG20k-NPipAc-Phe1, Trp2,Ala6-NMU-8 ({PEG20k-Acetyl(2-(piperazin-1-yl))}-FWLFRARN-NH2) [Compound K] | – | 11000 | – |

| Substance | TGR1 Receptor Binding IC50 ratio (human TGR1) | FM3 Receptor Binding IC50 ratio (Human FM3) | anorectic activity [1] |
| --- | --- | --- | --- |
| β-Ala0,Asp8-NMU-8 [Compound 12] | 2.0 | 2.4 | – |
| PEG20k-NH-β-Ala0,NMeLeu3,NMeArg7-NMU-8 [Compound O] | 170 | 75 | – |
| Tyr-Phe-Leu-Phe-Arg-Pro-Arg-Asn-NH2 [NMU-8] | – | – | does not induce an anorectic activity |
| β-Ala0,Cha3-NMU-8 [Compound 6] | 9.9 | 0.55 | – |
| NpipAc0,Glu2,Ala6-NMU-8 [Compound 19] | 25 | 24000 | – |
| PEG20k-NH-β-Ala0,Trp2,NMeAla6-NMU-8 [Compound Q] | 47 | 1600 | – |
| NpipAc0,Glu2,NMeAla6-NMU-8 [Compound 21] | 5.5 | 6500 | – |
| PEG30k-NH-β-Ala0,Arg(Me) 7-NMU-8 [Compound N] | 63 | 290 | – |
| β-Ala0,Gln3-NMU-8 [Compound 2] | 3.9 | 0.31 | – |
| PEG20k-NpipAc-Glu2,Ala6-NMU8 ({PEG20k-Acetyl(2-(piperazin-1-yl))}-YELFRARN-NH2) [Compound S] | – | >10000 | – |
| β-Ala0,Arg3-NMU-8 [Compound 3] | 0.38 | 0.07 | – |
| PEG20k-NpipAc-Glu2,NMeAla6-NMU8 ({PEG20k-Acetyl(2-(piperazin-1-yl))}-YELFR[NMeA]RN-NH2) [Compound U] | – | >10000 | – |
| PEG30k-NH-β-Ala0,Val3-NMU-8 [Compound D] | 2.2 | 5.3 | – |
| PEG30k-NH-β-Ala0,Tyr2-NMU-8 [Compound E] | 1.7 | 8.1 | – |
| PEG30k-NH-β-Ala0,Gln3-NMU-8 [Compound B] | 7.3 | 1.8 | – |
| PEG30k-NH-β-Ala0,Arg1-NMU-8 [Compound G] | 8.5 | 1.5 | – |
| PEG20k-NH-β-Ala0,NMeTyr1,NMeLeu3,NMeArg5-NMU-8 [Compound P] | 240 | 83 | – |
| NpipAc0,Phe1,Trp2,Ala6-NMU-8 [Compound 11] | 0.19 | 280 | – |
| β-Ala0,Pro1-NMU-8 [Compound 8] | 3.8 | 0.59 | – |
| β-Ala0,Trp2,NMeAla6-NMU-8 [Compound 17] | 1.9 | 92 | – |

From patent publication US9175037B2, “Neuromedin U derivative” (Takeda Pharmaceutical Company Limited, priority 2009, dated 2015)
